Measurements as given in ChEMBL document CHEMBL5365409, “Novel series of tunable µOR modulators with enhanced brain penetration for the treatment of opioid use disorder, pain and neuropsychiatric indications” (Bioorg Med Chem Lett, 2023).
Calls of active or inactive are those of the source. The rule behind the calls is not given here.

Assays:
Mu-type opioid receptor [1] = target: T1, Mu-type opioid receptor (Homo sapiens, UniProt P35372); assay: Agonist activity at human mu opioid receptor stably transfected in CHO cells by cAMP assay; type: functional, cell-based
T1 sequence (P35372 whole entry): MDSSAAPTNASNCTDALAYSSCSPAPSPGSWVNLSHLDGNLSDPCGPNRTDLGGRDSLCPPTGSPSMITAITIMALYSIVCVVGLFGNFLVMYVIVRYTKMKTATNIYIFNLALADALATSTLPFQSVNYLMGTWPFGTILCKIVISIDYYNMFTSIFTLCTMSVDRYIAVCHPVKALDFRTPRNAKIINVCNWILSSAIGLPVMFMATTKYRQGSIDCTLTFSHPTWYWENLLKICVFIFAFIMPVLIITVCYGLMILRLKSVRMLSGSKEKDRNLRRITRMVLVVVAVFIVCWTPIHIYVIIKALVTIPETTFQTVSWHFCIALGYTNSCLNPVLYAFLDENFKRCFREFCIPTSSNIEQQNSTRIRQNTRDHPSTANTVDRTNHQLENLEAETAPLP

Mu-type opioid receptor [2] = target: T1, Mu-type opioid receptor; assay: Antagonist activity at human mu opioid receptor stably transfected in CHO cells assessed as decrease in DAMGO induced receptor activation by cAMP assay; type: functional, cell-based
Mu-type opioid receptor [3] = target: T1, Mu-type opioid receptor; assay: Antagonist activity at human mu opioid receptor stably transfected in CHO cells assessed as maximal inhibition of DAMGO induced receptor activation by cAMP assay relative to naltrexone; type: functional, cell-based; details: filed as antagonist
Rattus norvegicus [4] = assay: Antianalgesic activity in Sprague-Dawley rat assessed as decrease in (1R,2R)-N-((S)-2-(dimethylamino)-3-(4-hydroxy-2-methylphenyl)propyl)-2-methyl-2-phenylcyclopropane-1-carboxamide induced analgesic effect by measuring withdrawal latency at 10 to 20 mg/kg, sc by hot plate assay; type: functional, organism-based; details: dose 10-20 mg/kg
Rattus norvegicus [5] = assay: Analgesic activity in Sprague-Dawley rat assessed as increase in withdrawal latency at 10 mg/kg, sc by hot plate assay; type: functional, organism-based
[6] = Plasma concentration in Sprague-Dawley rat at 30 mg/kg, po and measured after 1 hr; type: ADME, organism-based
Mu-type opioid receptor [7] = target: T1, Mu-type opioid receptor; assay: Agonist activity at human mu opioid receptor stably transfected in CHO cells assessed as maximal response by cAMP assay relative to DAMGO; type: functional, cell-based
[8] = Ratio of drug concentration in brain to plasma of Sprague-Dawley rat at 30 mg/kg, po measured after 1 hr; type: ADME, organism-based
[9] = Drug concentration in Sprague-Dawley rat brain at 30 mg/kg, po and measured after 1 hr; type: ADME, organism-based; details: read-out: Ct
Rattus norvegicus [10] = assay: Analgesic activity in Sprague-Dawley rat assessed as increase in withdrawal latency at 0.3 to 10 mg/kg, sc by hot plate assay; type: functional, organism-based; details: dose 0.3-10 mg/kg, time <= 90.0 min
[11] = In vivo receptor occupancy at mu opioid receptor in Sprague-Dawley rat brain at 10 mg/kg, sc measured by LC/MS/MS analysis relative to control; type: functional
Rattus norvegicus [12] = assay: Antianalgesic activity in Sprague-Dawley rat assessed as decrease in (1R,2R)-N-((S)-2-(dimethylamino)-3-(4-hydroxy-2-methylphenyl)propyl)-2-methyl-2-phenylcyclopropane-1-carboxamide induced analgesic effect by measuring withdrawal latency at 10 mg/kg, sc by hot plate assay; type: functional, organism-based

| Compound | EC50 (Mu-type opioid receptor [1]) [µM] | concentration at 1 h [6] [ng/mL] | BPR [8] [%] | concentration at 1 h [9] [ng/g] | also measured |
| --- | --- | --- | --- | --- | --- |
| CN(C)[C@H](CNC(=O)N[C@@H](c1ccccc1)C1CC1)Cc1ccc(O)cc1 | 0.104 |  |  |  |  |
| CN(C)[C@H](CNC(=O)[C@@H]1C[C@]1(C)c1ccccc1)Cc1ccc(O)cc1 | > 3 |  |  |  | IC50 (Mu-type opioid receptor [2]): 0.11 µM; Imax (Mu-type opioid receptor [3]): 100%; Activity (Rattus norvegicus [4]): Active; Activity (Rattus norvegicus [5]): inactive |
| C[C@@H](OC(=O)NC[C@H](Cc1ccc(O)cc1)N(C)C)c1ccccc1 | 0.062 |  |  |  |  |
| C[C@H](OC(=O)NC[C@@H](Cc1ccc(O)cc1)N(C)C)c1ccccc1 | > 3 |  |  |  |  |
| CN(C)[C@H](CNC(=O)[C@@H]1C[C@@]1(C)c1ccccc1)Cc1ccc(O)cc1 | 0.00087 | 3.7 | 89 | 3.3 | Emax (Mu-type opioid receptor [7]; filed as agonist): 90%; Activity (Rattus norvegicus [10]): Dose-Dependent Effect |
| C[C@H](OC(=O)NC[C@H](Cc1ccc(O)cc1)N(C)C)c1ccccc1 | 0.18 | 149 | 323 | 481 |  |
| CN(C)[C@H](CNC(=O)[C@@H]1C[C@]1(C)c1ccccc1)Cc1ccc(O)cc1Cl | > 3 |  |  |  | IC50 (Mu-type opioid receptor [2]): 0.029 µM; Imax (Mu-type opioid receptor [3]): 100%; Activity [11]: 70%; Activity (Rattus norvegicus [12]): Active |
| C[C@@H](CC(=O)NC[C@H](Cc1ccc(O)cc1)N(C)C)c1ccccc1 |  | 16.9 | 85 | 14.4 | Emax (Mu-type opioid receptor [7]; filed as agonist): 68% |
| CN(C)[C@@H](CNC(=O)N[C@@H](c1ccccc1)C1CC1)Cc1ccc(O)cc1 | 0.243 |  |  |  |  |
| C[C@H](CC(=O)NC[C@H](Cc1ccc(O)cc1)N(C)C)c1ccccc1 |  | 23.3 | 125 | 29.2 | Emax (Mu-type opioid receptor [7]; filed as agonist): 68% |
| C[C@@H](OC(=O)NC[C@@H](Cc1ccc(O)cc1)N(C)C)c1ccccc1 | 0.95 |  |  |  |  |
| CN(C)[C@H](CNC(=O)N[C@H](c1ccccc1)C1CC1)Cc1ccc(O)cc1 | 0.0073 |  |  |  |  |
| C[C@@H](CC(=O)NC[C@H](Cc1c(F)cc(O)cc1F)N(C)C)c1ccccc1 |  | 5.4 | 72 | 3.9 | Emax (Mu-type opioid receptor [7]): 33% |
| Cc1cc(O)cc(C)c1C[C@@H](CNC(=O)[C@@H]1C[C@@]1(C)c1ccccc1)N(C)C | 0.002 |  |  |  | Activity (Rattus norvegicus [4]): Active; Emax (Mu-type opioid receptor [7]): 27%; Activity (Rattus norvegicus [5]): inactive |
| CN(C)[C@H](CNC(=O)[C@H]1C[C@]1(C)c1ccccc1)Cc1ccc(O)cc1 | > 3 |  |  |  | IC50 (Mu-type opioid receptor [2]): 0.21 µM; Imax (Mu-type opioid receptor [3]): 100% |
| CN(C)[C@@H](CNC(=O)N[C@H](c1ccccc1)C1CC1)Cc1ccc(O)cc1 | 0.346 |  |  |  |  |
| Cc1cc(O)ccc1C[C@@H](CNC(=O)[C@@H]1C[C@@]1(C)c1ccccc1)N(C)C | 0.00033 |  |  |  | Emax (Mu-type opioid receptor [7]; filed as agonist): 100% |
| C[C@H](NC(=O)NC[C@H](Cc1ccc(O)cc1)N(C)C)c1ccccc1 | 0.021 | 190 | 17 | 33 | Emax (Mu-type opioid receptor [7]; filed as agonist): 48% |
| CN(C)[C@H](CNC(=O)[C@H]1C[C@@]1(C)c1ccccc1)Cc1ccc(O)cc1 | > 3 |  |  |  | IC50 (Mu-type opioid receptor [2]): > 3 µM |
| CN(C)[C@H](CNC(=O)O[C@H](c1ccccc1)C1CC1)Cc1ccc(O)cc1 | 0.77 |  |  |  | Emax (Mu-type opioid receptor [7]): 26% |
